Source: ChEMBL document CHEMBL1681705, “Optimisation of ITK inhibitors through successive iterative design cycles” (Bioorg Med Chem Lett, 2011)

Tests used:
[1] = biological target: Tyrosine-protein kinase Fer (Homo sapiens) (UniProt P16591); experiment: Inhibition of Fer at 1 uM; values are per cent of control
[2] = biological target: T1, Dual specificity mitogen-activated protein kinase kinase 6 (Homo sapiens) (UniProt P52564); experiment: Inhibition of MKK6 at 1 uM; values are per cent of control
T1 sequence (whole entry): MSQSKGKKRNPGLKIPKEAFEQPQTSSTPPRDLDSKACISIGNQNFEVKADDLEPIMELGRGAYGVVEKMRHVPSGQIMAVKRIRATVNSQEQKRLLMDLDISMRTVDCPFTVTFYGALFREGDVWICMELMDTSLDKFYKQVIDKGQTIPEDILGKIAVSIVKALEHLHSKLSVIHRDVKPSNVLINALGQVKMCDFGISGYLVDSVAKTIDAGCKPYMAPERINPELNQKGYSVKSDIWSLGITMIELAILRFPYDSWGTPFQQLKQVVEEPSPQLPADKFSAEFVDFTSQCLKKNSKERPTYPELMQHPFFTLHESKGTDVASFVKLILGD

[3] = biological target: Tyrosine-protein kinase ABL1 (Homo sapiens) (UniProt P00519); experiment: Inhibition of Abl at 0.1 uM; values are per cent of control
Chain of Tyrosine-protein kinase ABL1 (Homo sapiens) (P00519 whole entry): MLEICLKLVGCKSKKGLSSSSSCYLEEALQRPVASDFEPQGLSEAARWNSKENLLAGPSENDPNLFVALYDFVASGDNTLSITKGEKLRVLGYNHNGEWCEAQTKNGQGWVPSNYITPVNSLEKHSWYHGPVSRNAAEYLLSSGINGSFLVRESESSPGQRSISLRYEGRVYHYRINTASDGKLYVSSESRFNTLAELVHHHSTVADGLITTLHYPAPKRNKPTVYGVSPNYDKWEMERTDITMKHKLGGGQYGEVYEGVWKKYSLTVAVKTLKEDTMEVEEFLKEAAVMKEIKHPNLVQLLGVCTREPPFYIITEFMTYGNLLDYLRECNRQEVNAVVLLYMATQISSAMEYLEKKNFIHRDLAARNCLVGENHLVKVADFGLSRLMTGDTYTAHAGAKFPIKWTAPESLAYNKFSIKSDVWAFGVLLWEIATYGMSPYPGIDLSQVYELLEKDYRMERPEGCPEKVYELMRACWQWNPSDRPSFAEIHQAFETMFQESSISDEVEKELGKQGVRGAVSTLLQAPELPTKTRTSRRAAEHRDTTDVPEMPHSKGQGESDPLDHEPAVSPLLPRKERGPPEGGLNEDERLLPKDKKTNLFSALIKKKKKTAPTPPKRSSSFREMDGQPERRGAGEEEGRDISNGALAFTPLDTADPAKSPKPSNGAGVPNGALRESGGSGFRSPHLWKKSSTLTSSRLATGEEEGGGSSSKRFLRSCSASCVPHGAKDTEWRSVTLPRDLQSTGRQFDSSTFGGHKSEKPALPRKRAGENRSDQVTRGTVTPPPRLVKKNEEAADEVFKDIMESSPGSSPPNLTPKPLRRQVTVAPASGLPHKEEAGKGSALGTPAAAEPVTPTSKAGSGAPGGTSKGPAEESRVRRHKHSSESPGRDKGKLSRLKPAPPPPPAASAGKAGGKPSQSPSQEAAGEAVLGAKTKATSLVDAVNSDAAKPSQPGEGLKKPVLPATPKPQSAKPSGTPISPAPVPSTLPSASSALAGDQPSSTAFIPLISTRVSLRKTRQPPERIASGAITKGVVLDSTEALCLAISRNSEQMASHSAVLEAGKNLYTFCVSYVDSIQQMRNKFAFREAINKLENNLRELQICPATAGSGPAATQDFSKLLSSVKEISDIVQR

[4] = biological target: T1, Dual specificity mitogen-activated protein kinase kinase 6 (Homo sapiens); experiment: Inhibition of MKK6 at 0.1 uM; values are per cent of control
[5] = biological target: Serine/threonine-protein kinase PLK2 (Homo sapiens) (UniProt Q9NYY3); experiment: Inhibition of Snk at 1 uM
Chain of Serine/threonine-protein kinase PLK2 (Homo sapiens) (Q9NYY3 whole entry, looked up): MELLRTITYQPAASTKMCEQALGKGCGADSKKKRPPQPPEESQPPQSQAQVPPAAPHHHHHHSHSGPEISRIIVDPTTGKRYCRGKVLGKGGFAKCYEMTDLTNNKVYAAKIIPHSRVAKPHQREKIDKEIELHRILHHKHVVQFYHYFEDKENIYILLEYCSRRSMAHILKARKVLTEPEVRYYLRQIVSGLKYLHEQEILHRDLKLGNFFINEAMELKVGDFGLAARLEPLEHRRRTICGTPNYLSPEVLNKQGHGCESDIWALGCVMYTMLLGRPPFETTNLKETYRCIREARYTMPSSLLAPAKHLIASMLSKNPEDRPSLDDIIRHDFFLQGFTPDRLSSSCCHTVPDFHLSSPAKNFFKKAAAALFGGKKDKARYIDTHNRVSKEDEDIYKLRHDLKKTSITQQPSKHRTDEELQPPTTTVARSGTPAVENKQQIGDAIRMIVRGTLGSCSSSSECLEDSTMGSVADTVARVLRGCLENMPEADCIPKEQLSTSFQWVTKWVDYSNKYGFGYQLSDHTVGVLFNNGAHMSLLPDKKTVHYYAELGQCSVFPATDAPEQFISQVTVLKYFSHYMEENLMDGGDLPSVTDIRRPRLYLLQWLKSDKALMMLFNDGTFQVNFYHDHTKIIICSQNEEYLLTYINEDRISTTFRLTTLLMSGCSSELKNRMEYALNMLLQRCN

[6] = biological target: T2, Ephrin type-B receptor 4 (Homo sapiens) (UniProt P54760); experiment: Inhibition of EphB4 at 0.1 uM; values are per cent of control
T2 sequence (whole entry): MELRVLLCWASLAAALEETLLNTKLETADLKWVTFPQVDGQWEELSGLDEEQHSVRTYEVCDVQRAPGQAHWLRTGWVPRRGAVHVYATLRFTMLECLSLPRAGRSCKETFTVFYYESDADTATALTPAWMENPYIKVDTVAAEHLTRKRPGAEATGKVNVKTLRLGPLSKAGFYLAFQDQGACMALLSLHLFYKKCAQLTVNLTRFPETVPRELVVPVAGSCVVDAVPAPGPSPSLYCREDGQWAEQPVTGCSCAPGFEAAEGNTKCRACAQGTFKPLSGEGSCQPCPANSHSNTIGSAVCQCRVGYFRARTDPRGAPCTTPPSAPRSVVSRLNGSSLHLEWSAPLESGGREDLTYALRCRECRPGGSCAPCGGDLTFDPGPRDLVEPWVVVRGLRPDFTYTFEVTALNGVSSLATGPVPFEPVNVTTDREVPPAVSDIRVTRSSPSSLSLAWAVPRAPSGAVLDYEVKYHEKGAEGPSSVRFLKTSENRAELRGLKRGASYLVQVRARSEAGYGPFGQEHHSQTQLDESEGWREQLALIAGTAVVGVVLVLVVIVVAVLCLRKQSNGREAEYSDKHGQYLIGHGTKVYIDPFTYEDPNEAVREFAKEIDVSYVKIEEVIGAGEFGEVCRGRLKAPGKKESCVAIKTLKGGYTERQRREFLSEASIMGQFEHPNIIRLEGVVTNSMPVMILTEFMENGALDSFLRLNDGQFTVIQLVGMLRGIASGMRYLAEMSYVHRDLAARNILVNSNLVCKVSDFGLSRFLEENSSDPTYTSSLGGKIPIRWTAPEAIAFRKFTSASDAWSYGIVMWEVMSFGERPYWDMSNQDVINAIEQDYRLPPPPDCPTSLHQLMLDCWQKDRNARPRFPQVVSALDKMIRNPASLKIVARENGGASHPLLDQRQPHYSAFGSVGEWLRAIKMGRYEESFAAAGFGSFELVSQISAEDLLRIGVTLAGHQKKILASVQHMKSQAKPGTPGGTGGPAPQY

[7] = biological target: RAF proto-oncogene serine/threonine-protein kinase (Homo sapiens) (UniProt P04049); experiment: Inhibition of c-RAF at 1 uM; values are per cent of control
Chain of RAF proto-oncogene serine/threonine-protein kinase (Homo sapiens) (P04049 whole entry): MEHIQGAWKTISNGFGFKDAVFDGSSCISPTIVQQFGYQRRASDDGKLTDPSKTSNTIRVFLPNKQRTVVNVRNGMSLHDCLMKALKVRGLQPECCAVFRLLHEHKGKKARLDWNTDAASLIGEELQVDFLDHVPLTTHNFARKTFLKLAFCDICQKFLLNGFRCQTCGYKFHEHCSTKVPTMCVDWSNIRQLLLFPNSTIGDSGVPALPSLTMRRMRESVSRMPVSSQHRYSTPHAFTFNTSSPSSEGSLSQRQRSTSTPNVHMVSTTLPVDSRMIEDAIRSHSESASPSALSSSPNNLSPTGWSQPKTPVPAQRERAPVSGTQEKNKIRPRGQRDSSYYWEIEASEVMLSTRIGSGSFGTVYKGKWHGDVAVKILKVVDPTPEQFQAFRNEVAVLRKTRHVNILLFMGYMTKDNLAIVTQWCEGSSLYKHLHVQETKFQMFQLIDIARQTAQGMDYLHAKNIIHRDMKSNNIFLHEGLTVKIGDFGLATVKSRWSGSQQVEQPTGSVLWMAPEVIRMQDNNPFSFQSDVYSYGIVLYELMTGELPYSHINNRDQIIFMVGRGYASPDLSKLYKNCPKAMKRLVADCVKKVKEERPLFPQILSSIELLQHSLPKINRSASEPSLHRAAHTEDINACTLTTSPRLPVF

[8] = biological target: Angiopoietin-1 receptor (Homo sapiens) (UniProt Q02763); experiment: Inhibition of Tie2 at 1 uM; values are per cent of control
Chain of Angiopoietin-1 receptor (Homo sapiens) (Q02763 whole entry): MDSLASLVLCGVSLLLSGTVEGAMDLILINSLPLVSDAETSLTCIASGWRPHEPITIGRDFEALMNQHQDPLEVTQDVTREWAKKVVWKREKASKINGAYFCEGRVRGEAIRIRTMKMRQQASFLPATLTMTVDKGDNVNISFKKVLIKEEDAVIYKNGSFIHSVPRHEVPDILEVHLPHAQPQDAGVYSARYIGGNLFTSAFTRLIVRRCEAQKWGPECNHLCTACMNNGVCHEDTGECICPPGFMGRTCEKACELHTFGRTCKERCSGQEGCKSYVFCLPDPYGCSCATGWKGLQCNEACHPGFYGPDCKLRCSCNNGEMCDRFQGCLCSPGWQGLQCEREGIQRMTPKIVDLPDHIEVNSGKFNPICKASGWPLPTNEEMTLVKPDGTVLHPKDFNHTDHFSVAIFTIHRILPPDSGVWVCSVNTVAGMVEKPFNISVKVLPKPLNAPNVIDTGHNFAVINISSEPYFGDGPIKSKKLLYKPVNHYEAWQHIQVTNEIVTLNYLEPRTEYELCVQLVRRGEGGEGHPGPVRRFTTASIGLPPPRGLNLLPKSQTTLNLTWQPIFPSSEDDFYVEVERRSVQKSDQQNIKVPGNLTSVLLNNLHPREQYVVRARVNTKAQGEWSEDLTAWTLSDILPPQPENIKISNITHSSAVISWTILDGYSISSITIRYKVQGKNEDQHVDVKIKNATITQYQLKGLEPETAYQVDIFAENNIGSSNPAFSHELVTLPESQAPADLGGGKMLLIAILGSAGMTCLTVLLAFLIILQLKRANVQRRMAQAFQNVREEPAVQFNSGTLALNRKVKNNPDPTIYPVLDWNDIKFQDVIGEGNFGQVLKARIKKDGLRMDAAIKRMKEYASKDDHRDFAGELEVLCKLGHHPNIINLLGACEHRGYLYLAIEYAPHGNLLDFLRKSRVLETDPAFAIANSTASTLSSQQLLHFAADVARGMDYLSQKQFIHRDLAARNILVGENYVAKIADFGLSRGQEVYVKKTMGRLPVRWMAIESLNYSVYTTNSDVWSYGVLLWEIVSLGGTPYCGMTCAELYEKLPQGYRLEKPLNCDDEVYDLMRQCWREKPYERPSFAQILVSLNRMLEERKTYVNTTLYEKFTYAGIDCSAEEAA

[9] = biological target: T3, Calcium/calmodulin-dependent protein kinase type IV (Homo sapiens) (UniProt Q16566); experiment: Inhibition of CaMK4 at 1 uM; values are per cent of control
T3 sequence (whole entry): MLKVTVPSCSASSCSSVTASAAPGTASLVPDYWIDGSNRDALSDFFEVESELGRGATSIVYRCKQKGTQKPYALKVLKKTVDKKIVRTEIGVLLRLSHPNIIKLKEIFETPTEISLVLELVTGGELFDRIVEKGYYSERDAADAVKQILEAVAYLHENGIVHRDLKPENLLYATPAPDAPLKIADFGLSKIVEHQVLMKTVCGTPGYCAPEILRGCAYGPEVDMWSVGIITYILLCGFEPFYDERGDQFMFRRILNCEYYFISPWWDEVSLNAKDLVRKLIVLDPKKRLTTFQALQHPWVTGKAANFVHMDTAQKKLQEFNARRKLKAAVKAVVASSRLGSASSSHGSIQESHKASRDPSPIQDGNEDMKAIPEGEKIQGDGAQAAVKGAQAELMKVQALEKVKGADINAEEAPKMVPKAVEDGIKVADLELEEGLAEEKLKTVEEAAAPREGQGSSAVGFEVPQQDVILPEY

Chain of Tyrosine-protein kinase Fer (Homo sapiens) (P16591 whole entry, looked up): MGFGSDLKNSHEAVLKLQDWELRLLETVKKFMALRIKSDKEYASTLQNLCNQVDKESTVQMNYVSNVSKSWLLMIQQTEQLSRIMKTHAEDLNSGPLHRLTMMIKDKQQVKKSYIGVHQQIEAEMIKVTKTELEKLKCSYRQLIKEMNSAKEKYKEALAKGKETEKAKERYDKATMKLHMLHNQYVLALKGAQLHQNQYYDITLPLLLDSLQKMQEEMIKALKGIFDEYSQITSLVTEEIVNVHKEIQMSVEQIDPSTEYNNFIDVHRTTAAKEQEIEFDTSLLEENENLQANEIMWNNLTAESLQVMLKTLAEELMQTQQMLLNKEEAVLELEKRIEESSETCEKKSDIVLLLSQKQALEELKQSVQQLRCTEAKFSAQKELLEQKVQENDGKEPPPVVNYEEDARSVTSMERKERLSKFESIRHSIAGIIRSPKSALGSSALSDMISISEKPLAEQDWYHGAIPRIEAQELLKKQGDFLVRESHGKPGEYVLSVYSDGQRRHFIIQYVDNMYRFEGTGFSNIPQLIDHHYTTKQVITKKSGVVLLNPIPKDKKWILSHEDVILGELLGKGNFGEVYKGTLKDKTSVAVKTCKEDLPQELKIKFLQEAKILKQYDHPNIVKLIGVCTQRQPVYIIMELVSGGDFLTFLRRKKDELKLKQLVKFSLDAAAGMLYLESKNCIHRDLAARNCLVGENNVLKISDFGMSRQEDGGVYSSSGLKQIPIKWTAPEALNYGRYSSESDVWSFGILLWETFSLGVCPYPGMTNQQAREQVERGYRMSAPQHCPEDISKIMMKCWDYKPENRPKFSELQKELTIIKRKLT

Q: Which residual activity [1] does the source give for `Cc1ccc2cc(-c3n[nH]c4ccc(NC5CCNC5)cc34)[nH]c2c1` (stereo not drawn) here?
A: 2%

Q: What about the residual activity [2] of the same compound?
A: 15%

Q: What about the residual activity [3] of the same compound?
A: 3%

Q: And the residual activity [4]?
A: 57%

Q: And the inhibition [5]?
A: 76%

Q: And the residual activity [6]?
A: 106%

Q: What about the residual activity [7] of the same compound?
A: 90%

Q: What about the residual activity [8] of the same compound?
A: 1%

Q: What about the residual activity [9] of the same compound?
A: 28%

Q: What does the source list for `Cc1ccc2cc(-c3n[nH]c4ccc(NC5CCN(Cc6ccccc6)CC5)cc34)[nH]c2c1`?
A: residual activity [1]: 3%; residual activity [2]: 85%; residual activity [3]: 18%; residual activity [4]: 90%; inhibition [5]: 87%; residual activity [6]: 101%; residual activity [7]: 90%; residual activity [8]: 8%; residual activity [9]: 115%
